Read-outs that look alike come from different tables or passages of the source.
What was measured:
JAK1 = target: T1, JAK1 (Homo sapiens, UniProt P23458); test: Biochemical JAK1 kinase assay (LanthaScreen); conditions: for Ki: read-out: JAK 1 (pKi) (converted)
T1 construct: GST; purchased Life Technologies
Description: (§1) A panel of four LanthaScreen JAK biochemical assays (JAK1, 2, 3 and Tyk2) were carried in a common kinase reaction buffer (50 mM HEPES, pH 7.5, 0.01% Brij-35, 10 mM MgCl2, and 1 mM EGTA). Recombinant GST-tagged JAK enzymes and a GFP-tagged STAT1 peptide substrate were obtained from Life Technologies.
(§2) Serially or discretely diluted compounds were pre-incubated with each of the four JAK enzymes and the substrate in white 384-well microplates (Corning) at ambient temperature for 1 h. ATP was subsequently added to initiate the kinase reactions in 10 μL total volume, with 1% DMSO. […] Kinase reactions were allowed to proceed for 1 hour at ambient temperature before a 10 μL preparation of EDTA (10 mM final concentration) and Tb-anti-pSTAT1 (pTyr701) antibody (Life Technologies, 2 nM final concentration) in TR-FRET dilution buffer (Life Technologies) was added. The plates were allowed to incubate at ambient temperature for 1 h before being read on the EnVision reader (Perkin Elmer). Emission ratio signals (520 nm/495 nm) were recorded and utilized to calculate the percent inhibition values based on DMSO and background controls.
(§3) For dose-response analysis, percent inhibition data were plotted vs. compound concentrations, and IC50 values were determined from a 4-parameter robust fit model with the Prism software (GraphPad Software). Results were expressed as pIC50 (negative logarithm of IC50) and subsequently converted to pKi (negative logarithm of dissociation constant, Ki) using the Cheng-Prusoff equation.

[1] = system: IL-2 stimulated pSTAT5 in Tall-1 T cells; test: Cellular JAK3 potency assay: inhibition of IL-2 stimulated pSTAT5 in Tall-1 T cells; format: cell-based, human; conditions: for IC50: Homo sapiens, read-out: Tall-1 (pIC50) (converted)
Description: The potency of test compounds for inhibition of interleukin-2 (IL-2) stimulated STAT5 phosphorylation was measured in the Tall-1 human T cell line (DSMZ) using AlphaLisa. Because IL-2 signals through JAK3, this assay provides a measure of JAK3 cellular potency.
Compounds were serially diluted in DMSO and dispensed acoustically to empty wells. Assay media (phenol red-free DMEM (Life Technologies) supplemented with 10% FBS (ATCC)) was dispensed (4 μL/well) and plates shaken at 900 rpm for 10 mins. Cells were seeded at 45,000 cells/well in assay media (4 μL/well), and incubated at 37° C., 5% CO2 for 1 hour, followed by the addition of IL-2 (R&D Systems; final concentration 300 ng/ml) in pre-warmed assay media (4 μL) for 30 minutes. After cytokine stimulation, cells were lysed with 6 ul of 3× AlphaLisa Lysis Buffer (PerkinElmer) containing 1× PhosStop and Complete tablets (Roche). The lysate was shaken at 900 rpm for 10 minutes at room temperature (RT). Phosphorylated STAT5 was measured via the pSTAT5 AlphaLisa kit (PerkinElmer). Freshly prepared acceptor bead mixture was dispensed onto lysate (5 μL) under green filtered <100 lux light. Plates were shaken at 900 rpm for 2 mins, briefly spun down, and incubated for 2 hrs at RT in the dark. Donor beads were dispensed (5 μL) under green filtered <100 lux light. Plates were shaken at 900 rpm for 2 minutes, briefly spun down, and incubated overnight at RT in the dark.
To determine the inhibitory potency of test compounds in response to IL-2, the average emission intensity of beads bound to pSTAT5 was measured in a human T cell line. IC50 values were determined from analysis of the inhibition curves of signal intensity versus compound concentration. Data are expressed as pIC50 (negative decadic logarithm IC50) values (mean±standard deviation).

JAK3 = target: T2, JAK3 (Homo sapiens, UniProt P52333); test: Biochemical JAK3 kinase assay (LanthaScreen); set-up: GST; purchased Life Technologies; conditions: for Ki: read-out: JAK 3 (pKi) (converted)
T2 sequence (P52333 1-1124): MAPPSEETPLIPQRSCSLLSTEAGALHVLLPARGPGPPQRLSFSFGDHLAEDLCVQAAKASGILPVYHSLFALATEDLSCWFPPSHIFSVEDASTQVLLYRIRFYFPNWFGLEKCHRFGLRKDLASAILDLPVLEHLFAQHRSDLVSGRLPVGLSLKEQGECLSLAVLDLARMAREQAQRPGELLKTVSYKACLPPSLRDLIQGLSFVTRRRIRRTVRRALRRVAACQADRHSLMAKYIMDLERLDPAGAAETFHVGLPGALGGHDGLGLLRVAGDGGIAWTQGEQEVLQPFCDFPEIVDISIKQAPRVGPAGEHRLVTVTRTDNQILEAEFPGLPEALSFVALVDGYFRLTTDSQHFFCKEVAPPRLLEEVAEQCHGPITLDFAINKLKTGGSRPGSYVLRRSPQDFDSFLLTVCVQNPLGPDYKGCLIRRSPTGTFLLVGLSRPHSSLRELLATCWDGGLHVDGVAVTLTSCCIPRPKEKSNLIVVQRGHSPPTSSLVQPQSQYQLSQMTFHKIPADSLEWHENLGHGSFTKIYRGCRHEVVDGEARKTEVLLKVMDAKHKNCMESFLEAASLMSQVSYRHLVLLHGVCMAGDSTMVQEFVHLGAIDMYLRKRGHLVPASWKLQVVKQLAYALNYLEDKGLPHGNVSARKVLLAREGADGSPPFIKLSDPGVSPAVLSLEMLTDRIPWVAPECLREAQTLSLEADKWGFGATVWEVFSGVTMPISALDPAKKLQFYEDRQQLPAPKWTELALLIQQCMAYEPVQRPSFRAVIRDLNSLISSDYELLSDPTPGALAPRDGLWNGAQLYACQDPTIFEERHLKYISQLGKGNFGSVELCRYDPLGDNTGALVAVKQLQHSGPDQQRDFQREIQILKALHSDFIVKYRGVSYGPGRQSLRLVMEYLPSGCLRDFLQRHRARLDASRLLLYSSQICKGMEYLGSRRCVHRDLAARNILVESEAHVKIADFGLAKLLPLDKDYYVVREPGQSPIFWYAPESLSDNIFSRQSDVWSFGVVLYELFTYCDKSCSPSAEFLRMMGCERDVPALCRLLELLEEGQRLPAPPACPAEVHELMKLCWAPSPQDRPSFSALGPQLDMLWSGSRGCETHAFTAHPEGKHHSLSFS
Description: as §1, §2, §3

[2] = IL-2 stimulated pSTAT5 in Tall-1 T cells
[3] = selectivity: difference of pKi JAK3 and pKi JAK1
[4] = TALL-1, IL-2 stimulated pSTAT5, Tall-1 T cells
[5] = selectivity JAK3 over JAK1, difference of pKi
[6] = TALL-1, IL-2 stimulated pSTAT5 in Tall-1 T cells
[7] = IL-2 stimulated pSTAT5, Tall-1 T cells

T1 sequence (P23458 whole entry): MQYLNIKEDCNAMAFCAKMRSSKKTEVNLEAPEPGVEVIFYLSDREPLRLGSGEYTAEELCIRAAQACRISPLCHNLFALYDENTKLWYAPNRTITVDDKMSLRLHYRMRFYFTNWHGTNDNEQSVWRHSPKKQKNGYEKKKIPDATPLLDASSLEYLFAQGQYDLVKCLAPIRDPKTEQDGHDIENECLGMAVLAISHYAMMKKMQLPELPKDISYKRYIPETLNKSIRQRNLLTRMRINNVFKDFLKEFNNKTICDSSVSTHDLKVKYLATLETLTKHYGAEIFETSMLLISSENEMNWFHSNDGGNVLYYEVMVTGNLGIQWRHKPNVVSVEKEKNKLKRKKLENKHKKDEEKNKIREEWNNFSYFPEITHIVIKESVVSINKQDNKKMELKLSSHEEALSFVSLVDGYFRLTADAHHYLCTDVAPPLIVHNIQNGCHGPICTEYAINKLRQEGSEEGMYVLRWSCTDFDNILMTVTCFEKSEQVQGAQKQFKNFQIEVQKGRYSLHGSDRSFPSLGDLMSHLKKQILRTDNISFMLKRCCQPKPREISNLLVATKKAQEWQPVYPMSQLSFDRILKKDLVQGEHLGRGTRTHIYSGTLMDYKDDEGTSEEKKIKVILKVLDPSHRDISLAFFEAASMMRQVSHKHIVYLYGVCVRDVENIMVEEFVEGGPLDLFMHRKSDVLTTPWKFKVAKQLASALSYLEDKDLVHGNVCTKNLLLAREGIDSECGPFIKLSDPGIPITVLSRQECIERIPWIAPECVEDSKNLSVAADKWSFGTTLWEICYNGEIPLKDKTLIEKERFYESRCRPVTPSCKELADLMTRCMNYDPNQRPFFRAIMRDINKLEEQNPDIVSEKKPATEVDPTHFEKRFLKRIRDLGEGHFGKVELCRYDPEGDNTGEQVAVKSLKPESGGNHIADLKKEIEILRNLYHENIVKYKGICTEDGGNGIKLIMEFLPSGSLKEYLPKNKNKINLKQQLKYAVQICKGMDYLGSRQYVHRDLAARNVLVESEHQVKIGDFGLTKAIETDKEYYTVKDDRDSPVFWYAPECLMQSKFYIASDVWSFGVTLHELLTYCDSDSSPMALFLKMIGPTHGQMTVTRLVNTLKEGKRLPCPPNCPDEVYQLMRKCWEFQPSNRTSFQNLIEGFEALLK

Structure (SMILES) | JAK 1 (pKi) (JAK1) | Tall-1 (pIC50) [1, 2] | JAK 3 (pKi) (JAK3) | JAK3 (pKi)-JAK1 (pKi) (JAK3; [3]) | Ki (JAK1) | IC50 [1, 4] | Ki (JAK3) | JAK3 (pKi)-JAK1 (pKi) (JAK3; [5]) | IC50 [1, 6] | Tall-1 (pIC50) [1, 7]
C=CC(=O)N1CC(CC)(COc2cc(-c3ccc(O)c(F)c3)cc3[nH]ncc23)C1 [Compound 3-18] | E (a pKi value of 7 or below (Ki of 100 nM or above)) | B (a pIC50 value between 6.7 (included) and 7.5 (IC50 between 200 nM and 32 nM)) | A (a pKi value≥10 (Ki≤0.1 nM)) | A (a value of 3 or above) |  |  |  |  |  | 
CN(C)C/C=C/C(=O)N1CCC(Nc2cc(-c3ccc(O)cc3)cc3[nH]ncc23)C(F)(F)C1 (centres unmarked) [Compound 7-5] |  |  |  |  | 10 to 100 nM | 31.6 to 200 nM | 0.1 to 1 nM | C (a value of 1.8 to 2.3) |  | 
CN(C)C/C=C/C(=O)N1CC(CN(C)c2nc(-c3ccc(O)cc3)cc3[nH]ncc23)C1 [Compound 4-8] | E (a pKi value of 7 or below (Ki of 100 nM or above)) | B (a pIC50 value between 6.7 (included) and 7.5 (IC50 between 200 nM and 32 nM)) | B (a pKi value between 9 and 10 (Ki between 1 nM and 0.1 nM)) | B (a value of 2.3 to 3) |  |  |  |  |  | 
C=CC(=O)N1CC[C@H](Oc2nc(-c3ccc(O)c(Cl)c3)nc3[nH]nc(C)c23)C1 [Compound 1-37] |  |  |  | A (a value of 3 or above) | > 100 nM |  | 0.1 to 1 nM |  | 200 to 1000 nM | 
CN(C)C/C=C/C(=O)N1CCC(COc2cc(-c3ccc(O)c(Cl)c3)cc3[nH]ncc23)CC1 [Compound 14-3] | E (a pKi value of 7 or below (Ki of 100 nM or above)) |  | B (a pKi value between 9 and 10 (Ki between 1 nM and 0.1 nM)) |  |  |  |  | B (a value of 2.3 to 3) |  | B (a pIC50 value between 6.7 (included) and 7.5 (IC50 between 200 nM and 32 nM))
C=CC(=O)N1CCC(C(=O)Nc2cc(-c3ccc(O)cc3)cc3[nH]ncc23)CC1 [Compound 12-59] |  |  |  |  | > 100 nM | 31.6 to 200 nM | < 0.1 nM | A (a value of 3 or above) |  | 
C=CC(=O)N1CCO[C@@H](C(=O)Nc2cc(-c3ccc(O)c(F)c3)cc3[nH]ncc23)C1 [Compound 13-3] | E (a pKi value of 7 or below (Ki of 100 nM or above)) |  | A (a pKi value≥10 (Ki≤0.1 nM)) |  |  |  |  | A (a value of 3 or above) |  | A (a pIC50 value≥7.5 (IC50≤32 nM))
CN(C)C/C=C/C(=O)N1CCC(Sc2cc(-c3ccc(O)cc3)cc3[nH]ncc23)CC1 [Compound 12-5] |  |  |  |  | > 100 nM | 31.6 to 200 nM | 0.1 to 1 nM | B (a value of 2.3 to 3) |  | 
C=CC(=O)N1CC[C@@H](Sc2cc(-c3ccc(O)cc3)cc3[nH]ncc23)C1 [Compound 12-2] | E (a pKi value of 7 or below (Ki of 100 nM or above)) |  | B (a pKi value between 9 and 10 (Ki between 1 nM and 0.1 nM)) |  |  |  |  | B (a value of 2.3 to 3) |  | B (a pIC50 value between 6.7 (included) and 7.5 (IC50 between 200 nM and 32 nM))
CN(C)C/C=C/C(=O)N1CC[C@H](COc2cc(-c3ccc(O)c(F)c3)cc3[nH]ncc23)C1 [Compound 2-4] | E (a pKi value of 7 or below (Ki of 100 nM or above)) | C (a pIC50 value between 6 and 6.7 (IC50 between 1 μM and 200 nM)) | B (a pKi value between 9 and 10 (Ki between 1 nM and 0.1 nM)) | B (a value of 2.3 to 3) |  |  |  |  |  | 
C=CC(=O)N1CCC(COc2nc(-c3ccc(O)c(Cl)c3)cc3[nH]ncc23)CC1 [Compound 14-7] | D (a pKi value between 7 and 8 (Ki between 100 nM and 10 nM)) |  | A (a pKi value≥10 (Ki≤0.1 nM)) |  |  |  |  | B (a value of 2.3 to 3) |  | A (a pIC50 value≥7.5 (IC50≤32 nM))
C=CC(=O)N1CC(COc2nc(-c3ccc(O)cc3)cc3[nH]ncc23)C1 [Compound 3-29] | E (a pKi value of 7 or below (Ki of 100 nM or above)) | A (a pIC50 value≥7.5 (IC50≤32 nM)) | B (a pKi value between 9 and 10 (Ki between 1 nM and 0.1 nM)) | A (a value of 3 or above) |  |  |  |  |  | 
C=CC(=O)N1C2CCC1CC(Oc1nc(-c3ccc(O)c(Cl)c3)cc3[nH]ncc13)C2 (centres unmarked) [Compound 9-7] | E (a pKi value of 7 or below (Ki of 100 nM or above)) |  | A (a pKi value≥10 (Ki≤0.1 nM)) |  |  |  |  | A (a value of 3 or above) |  | B (a pIC50 value between 6.7 (included) and 7.5 (IC50 between 200 nM and 32 nM))
C=CC(=O)N1CC(F)(C2(Oc3cc(-c4ccc(O)cc4)cc4[nH]ncc34)CC2)C1 [Compound 12-37] |  |  |  |  | 10 to 100 nM | 31.6 to 200 nM | 0.1 to 1 nM | B (a value of 2.3 to 3) |  | 
C=CC(=O)N1CC(Oc2nc(-c3ccc(O)cc3)nc3[nH]ncc23)C1 [Compound 5-20] | E (a pKi value of 7 or below (Ki of 100 nM or above)) |  | B (a pKi value between 9 and 10 (Ki between 1 nM and 0.1 nM)) |  |  |  |  | A (a value of 3 or above) |  | C (a pIC50 value between 6 and 6.7 (IC50 between 1 μM and 200 nM))
CN1CCC[C@@H]1/C=C/C(=O)N1CC[C@H](Oc2cc(-c3ccc(O)cc3)cc3[nH]ncc23)C1 [Compound 15, (E)-1-((S)-3-((6-(4-hydroxyphenyl)-1H-indazol-4-yl)oxy)pyrrolidin-1-yl)-3-((R)-1-methylpyrrolidin-2-yl)prop-2-en-1-one] |  |  |  | A (a value of 3 or above) | > 100 nM |  | 0.1 to 1 nM |  | 200 to 1000 nM | 
C=CC(=O)N1CC[C@H](Nc2cc(-c3ccc(O)cc3)cc3[nH]ncc23)C[C@@H]1C [Compound 12-15] |  |  |  |  | > 100 nM | 31.6 to 200 nM | 0.1 to 1 nM | B (a value of 2.3 to 3) |  | 
